The source of these data is US10703740B2, “Substituted benzimidazoles, their preparation and their use as pharmaceuticals” (NEOMED Institute, priority 2015, dated 2020).

pIC50: −log10 of the molar value.

One test relates to human C-Myc transcription in MV-4-11 cells. Description: Transcription of human C-Myc in human leukemic MV-4-11 cells (QuantiGene 2.0). To be noted: Homo sapiens, MV4-11, 4 h, inhibition of C-Myc mRNA, 4 hours treatment, read-out: IC50 MV-4-11 Cell. Type of test: cell-based. The protocol:
The effect of compounds on transcription of human C-Myc gene is monitored in human B-myelomonocytic leukemia cell line MV-4-11 (from American Type Culture Collection (ATCC), Manassas, Va., USA) using QuantiGene 2.0 assay kit (Affymetrix, Santa Clara, Calif., USA).
Typically, 8,000 MV-4-11 cells are plated in sterile 96-well plates (Costar #3598 from Fisher Scientific Canada, Ottawa, Ontario, Canada) in Iscove's medium supplemented with 10% fetal bovine serum, glutamine (2 mM), and penicillin (100 I.U.) and streptomycin (100 μg/mL) (all from Wisent Inc., St. Bruno, Quebec, Canada). Compounds are dissolved in DMSO at 30 mM. A series of 1:3 dilutions are first made in DMSO, and further 1:100 dilutions are made in serum-containing cell culture media. The final concentration of DMSO is 0.1% in cell culture media. After cells are treated with various concentrations of test compound for 4 hours, cells are lysed using Quantigene 2.0 sample processing kit (# QS0100). C-Myc mRNA is detected using a QuantiGene 2.0 assay kit (# QS0009) with gene-specific probe to human C-Myc (# SA-50182) following the manufacturer's recommendations. Luminescene signals are read on Flexstation II microplate reader (Molecular Devices, Sunnyvale, Calif., USA).
In the case of `COC[C@@H](C)n1c(CC2CCOCC2)nc2ccc(-c3cc(C)c(=O)n(C)c3)cc21` [Compound 50, (R)-5-(1-(1-methoxypropan-2-yl)-2-((tetrahydro-2H-pyran-4-yl)methyl)-1H-benzo[d]imidazol-6-yl)-1,3-dimethylpyridin-2(1H)-one], the pIC50 was 6.80.
For `COC(C)Cn1cnc2ccc(-c3cc(C)c(=O)n(C)c3)cc21` (stereo not drawn) [Compound 22a, 5-[3-(2-methoxypropyl)benzimidazol-5-yl]-1,3-dimethylpyridin-2-one], the pIC50 was 6.08.
On to `COC[C@H](C)n1c(C2CC2)nc2ccc(-c3cc(C)c(=O)n(C)c3)cc21` [Compound 17, 5-[2-cyclopropyl-3-[(1S)-2-methoxy-1-methylethyl]benzimidazol-5-yl]-1,3-dimethyl pyridin-2-one], for which the pIC50 is 6.09.
Still for that read-out and setting: under `CNc1cc(-c2ccc3nc(C4CC4)n(CCOC(F)(F)F)c3c2)cn(C)c1=O` [Compound 20, 5-[2-cyclopropyl-3-[2-(trifluoromethoxy)ethyl]benzimidazol-5-yl]-1-methyl-3-(methylamino)pyridin-2-one] stands 6.62.
Still for that read-out and setting: in the case of `COC(C)Cn1c(C)nc2ccc(-c3cc(C)c(=O)n(C)c3)cc21` (stereo not drawn) [Compound 21a, 5-[3-(2-methoxypropyl)-2-methylbenzimidazol-5-yl]-1,3-dimethylpyridin-2-one] it was 6.29; in that of `CCO[C@H](C)Cn1c(C2CC(F)(F)C2)nc2ccc(-c3cc(C)c(=O)n(C)c3)cc21` [Compound 54, (R)-5-(2-(3,3-difluorocyclobutyl)-1-(2-ethoxypropyl)-1H-benzo[d]imidazol-6-yl)-1,3-dimethylpyridin-2(1H)-one], 6.77.
On the same count and under the same terms, in the case of `Cc1cc(-c2ccc3nc(C4CC4)n(CCOCC(F)(F)F)c3c2)cn(C)c1=O` [Compound 45, 5-(2-cyclopropyl-1-(2-(2,2,2-trifluoroethoxy)ethyl)-1H-benzo[d]imidazol-6-yl)-1,3-dimethylpyridin-2(1H)-one] it was 6.80; in that of `COC[C@@H](C)n1c(C2CC(F)(F)C2)nc2ccc(-c3cc(C)c(=O)n(C)c3)cc21` [Compound 51, (R)-5-(2-(3,3-difluorocyclobutyl)-1-(1-methoxypropan-2-yl)-1H-benzo[d]imidazol-6-yl)-1,3-dimethylpyridin-2(1H)-one], 7.21; in that of `CCOCCn1c(C2CCC(F)(F)CC2)nc2ccc(-c3cc(C)c(=O)n(C)c3)cc21` [Compound 61, 5-(2-(4,4-difluorocyclohexyl)-1-(2-ethoxyethyl)-1H-benzo[d]imidazol-6-yl)-1,3-dimethylpyridin-2(1H)-one], 7.08.
Regarding `CCO[C@@H](C)Cn1c(C2CCOCC2)nc2ccc(-c3cc(C)c(=O)n(C)c3)cc21` [Compound 40, (S)-5-(1-(2-ethoxypropyl)-2-(tetrahydro-2H-pyran-4-yl)-1H-benzo[d]imidazol-6-yl)-1,3-dimethylpyridin-2(1H)-one], the pIC50 is 7.57.
Still for that read-out and setting: under `Cc1cc(-c2ccc3nc(C4(C)CCOCC4)n(CCOC(F)(F)F)c3c2)cn(C)c1=O` [Compound 31, 1,3-dimethyl-5-(2-(4-methyltetrahydro-2H-pyran-4-yl)-1-(2-(trifluoromethoxy)ethyl)-1H-benzo[d]imidazol-6-yl)pyridin-2(1H)-one] stands 7.62.
Consider `COC[C@@H](C)n1c(C2CCC(F)(F)CC2)nc2ccc(-c3cc(C)c(=O)n(C)c3)cc21` [Compound 57, (R)-5-(2-(4,4-difluorocyclohexyl)-1-(1-methoxypropan-2-yl)-1H-benzo[d]imidazol-6-yl)-1,3-dimethylpyridin-2(1H)-one], for which the pIC50 is 7.14.
Same read-out and setting: in the case of `Cc1cc(-c2ccc3nc(C4CCOCC4)n(CCC(F)(F)F)c3c2)cn(C)c1=O` [Compound 34, 1,3-dimethyl-5-[2-tetrahydropyran-4-yl-3-(3,3,3-trifluoropropyl)benzimidazol-5-yl]pyridin-2-one] it was 6.66; in that of `Cc1cc(-c2ccc3nc([C@@H]4CCCO4)n(CCOC(F)(F)F)c3c2)cn(C)c1=O` (stereo in doubt) [Compound 30b, 1,3-dimethyl-5-[2-tetrahydrofuran-2-yl-3-[2-(trifluoromethoxy)ethyl]benzimidazol-5-yl]pyridin-2-one], 7.06; in that of `Cc1cc(-c2ccc3nc(C4CCOCC4)n(CCOCC(F)(F)F)c3c2)cn(C)c1=O` [Compound 41, 1,3-dimethyl-5-(2-(tetrahydro-2H-pyran-4-yl)-1-(2-(2,2,2-trifluoroethoxy)ethyl)-1H-benzo[d]imidazol-6-yl)pyridin-2(1H)-one], 7.64.
The same measure, in the same setting: under `Cc1cc(-c2ccc3nc(C4CCOCC4)n([C@H](C)COC(C)C)c3c2)cn(C)c1=O` [Compound 66, (R)-5-(1-(1-isopropoxypropan-2-yl)-2-(tetrahydro-2H-pyran-4-yl)-1H-benzo[d]imidazol-6-yl)-1,3-dimethylpyridin-2(1H)-one] stands 7.74.
The same measure, in the same setting: in the case of `COC[C@H](C)n1c(C2CCC(F)(F)CC2)nc2ccc(-c3cc(C)c(=O)n(C)c3)cc21` [Compound 56, (S)-5-(2-(4,4-difluorocyclohexyl)-1-(1-methoxypropan-2-yl)-1H-benzo[d]imidazol-6-yl)-1,3-dimethylpyridin-2(1H)-one] it was 6.66.
Consider `CO[C@@H](C)Cn1c(C2CCC(F)(F)CC2)nc2ccc(-c3cc(C)c(=O)n(C)c3)cc21` [Compound 59, (S)-5-(2-(4,4-difluorocyclohexyl)-1-(2-methoxypropyl)-1H-benzo[d]imidazol-6-yl)-1,3-dimethylpyridin-2(1H)-one], for which the pIC50 was 7.05.
Same read-out and setting: under `CCOC[C@@H](C)n1c(C2CCOCC2)nc2ccc(-c3cc(C)c(=O)n(C)c3)cc21` [Compound 47, (R)-5-(1-(1-ethoxypropan-2-yl)-2-(tetrahydro-2H-pyran-4-yl)-1H-benzo[d]imidazol-6-yl)-1,3-dimethylpyridin-2(1H)-one] stands 7.57.

The test is the same for the next values; noted with them: inhibition of C-Myc mRNA, 4 hours treatment, read-out: IC50 MV-4-11 Cell.
Consider `COC(C)Cn1c(C2CCOCC2)nc2ccc(-c3cc(C)c(=O)n(C)c3)cc21` (single isomer, unassigned) [Compound 35a, 5-[3-(2-methoxypropyl)-2-tetrahydropyran-4-yl-benzimidazol-5-yl]-1,3-dimethyl pyridin-2-one], for which the pIC50 is 6.74.
In the case of `COC(C)Cn1cnc2ccc(-c3cc(C)c(=O)n(C)c3)cc21` (stereo not drawn) [Compound 22b, 5-[3-(2-methoxypropyl)benzimidazol-5-yl]-1,3-dimethylpyridin-2-one], the negative logarithm of the IC50 (pIC50) is 6.11.
The same measure, in the same setting: under `COC(C)Cn1c(C2CC2)nc2ccc(-c3cc(C)c(=O)n(C)c3)cc21` (single isomer, unassigned) [Compound 23b, 5-[2-cyclopropyl-3-(2-methoxypropyl)benzimidazol-5-yl]-1,3-dimethylpyridin-2-one] stands 6.14; under `COC1CC(c2nc3ccc(-c4cc(C)c(=O)n(C)c4)cc3n2CCOC(C)C)C1` (stereo not drawn) [Compound 65, 5-[1-(2-isopropoxyethyl)-2-(3-methoxycyclobutyl)-1H-benzo[d]imidazol-6-yl]-1,3-dimethylpyridin-2(1H)-one], 7.60; under “5-[2-(3-methoxycyclobutyl)-1-(2-(2,2,2-trifluoroethoxy)ethyl)-1H-benzo[d]imidazol-6-yl]-1,3-dimethylpyridin-2(1H)-one [Compound 63]”, 7.77.
